Test results from patent publication US12059427B2, “Treatments for cachexia” (YINUOKE MEDICINE SCIENCE AND TECHNOLOGY COMPANY LTD., priority 2018, dated 2024).
Entries after “also recorded” stand apart in the source; their conditions may differ.

Experiments:
[1] = tested on: cachectic Balb/c mice injected with C26 tumor cells; assay: Body weight of cachectic mice (C26 cachexia mouse model); format: in vivo
[2] = tested on: cachectic Balb/c mice injected with C26 tumor cells; assay: Kaplan-Meier survival analysis of cachectic mice (C26 model); format: in vivo, mouse
[3] = 0.3 mg Cytarabine, 0.1 mg Ketorolac or combination (0.3 mg + 0.1 mg) in PBS s.c. on three consecutive days (1 cycle), 8 days observation, vs untreated
[4] = ~50 day period, two 3-day/one-injection-per-day cycles s.c., 0.3 mg Cytarabine, 0.1 mg Ketorolac or combination vs PBS

| SMILES | body weight of cachectic mice ([1]; 0.05 mg orally, three consecutive days per cycle, 6 days/2 cycles, vs PBS) | body weight of cachectic mice ([1]; 0.05 mg orally, three consecutive days per cycle, 6 days/2 cycles, vs PBS, listed as (R)-ketorolac) | survival (Kaplan-Meier) ([2]; two cycles of daily oral administration, 40 day period, vs PBS vehicle) | survival (Kaplan-Meier) ([2]; two cycles of daily oral administration, 40 day period, vs PBS vehicle, listed as (R)-ketorolac) | body weight of cachectic mice [1, 3] | transient weight loss after treatment ([1]; days 0-5 after start of treatment, 0.3 mg Cytarabine alone vs combination with 0.1 mg Ketorolac, s.c.) | survival (Kaplan-Meier) [2, 4] |
| --- | --- | --- | --- | --- | --- | --- | --- |
| O=C(c1ccccc1)c1ccc2n1CC[C@H]2C(=O)O [(R)-Ketorolac] | reverse body weight drop | regained body weight after initiation of the treatment and maintained stabilized body weight during the treatment | prolong survival of cachectic mice | significant efficacy as a single agent increasing the survival of cachectic mice |  |  |  |
| Nc1ccn([C@@H]2O[C@H](CO)[C@@H](O)[C@@H]2O)c(=O)n1 [Cytarabine, 1-(β-D-Arabinofuranosyl)cytosine] |  |  |  |  | the body weight drop eventually reverses for all treated mice; also recorded: reverse body weight drop in cachectic mice | transient weight loss seen on days 0-5 | highly significant increase in survival; also recorded: prolong survival of cachectic mice |
| O=C(c1ccccc1)c1ccc2n1CCC2C(=O)O (stereo not drawn) [Ketorolac, Ketorolac tromethamine] |  |  |  |  | the body weight drop eventually reverses for all treated mice; also recorded: reverse body weight drop in cachectic mice |  | finally ketorolac alone |
